Target: T1, MdtM (Escherichia coli, UniProt P39386)
T1 construct: full-length wild-type, pBAD/Myc-His A vector (pMdtM), homologously overexpressed in E. coli LMG194, purified in DDM
Assay: intrinsic Trp fluorescence quenching
Assay type: binding

T1 sequence (P39386 whole entry): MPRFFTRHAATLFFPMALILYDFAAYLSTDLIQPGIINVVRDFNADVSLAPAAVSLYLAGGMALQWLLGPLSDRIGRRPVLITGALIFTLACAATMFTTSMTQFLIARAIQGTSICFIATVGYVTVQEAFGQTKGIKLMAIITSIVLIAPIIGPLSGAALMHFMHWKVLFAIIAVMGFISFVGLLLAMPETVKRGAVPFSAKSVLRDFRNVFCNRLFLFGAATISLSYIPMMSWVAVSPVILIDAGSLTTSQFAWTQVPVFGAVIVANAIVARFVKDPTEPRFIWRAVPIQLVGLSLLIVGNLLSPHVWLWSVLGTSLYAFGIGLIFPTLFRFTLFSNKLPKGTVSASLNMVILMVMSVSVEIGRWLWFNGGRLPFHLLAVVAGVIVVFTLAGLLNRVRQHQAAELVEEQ

| Structure (SMILES) | Kd [µM] |
| --- | --- |
| C[C@H](CCC(=O)O)[C@H]1CC[C@H]2[C@@H]3[C@H](O)C[C@@H]4C[C@H](O)CC[C@]4(C)[C@H]3C[C@H](O)[C@]12C [cholate] | 24 ± 6 |
| C[C@H](CCC(=O)O)[C@H]1CC[C@H]2[C@@H]3CC[C@@H]4C[C@H](O)CC[C@]4(C)[C@H]3C[C@H](O)[C@]12C [deoxycholate] | 176 ± 20 |

From article PMC4235344, “A single-component multidrug transporter of the major facilitator superfamily is part of a network that protects E scherichia coli from bile salt stress” (Molecular Microbiology, 2014)
